Laboratory results reported in patent publication US4057636A, “Antihypertensive pyridylguanidine compounds” (Leo Pharmaceutical Products Ltd. A/S, priority 1974, dated 1977).

Assays:
[1] = system: conscious spontaneously hypertensive rats; assay: Antihypertensive activity in conscious spontaneously hypertensive rats; assay type: in vivo, rat (spontaneously hypertensive Okamoto strain)
Method: Male albino rats, spontaneously hypertensive Okamoto strain, fasting 16 hours before the experiments were used. The conscious animals were restrained in a plastic cage and a cuff was secured around the tail. The cuff was connected with an electronic blood pressure recorder. The systolic blood pressure and the heart rate were measured before and 2, 4, 6, and 24 hours after the administration of compounds. The compounds were suspended or dissolved in carboxymethylcellulose 0.5%. […] There are also included, for comparison, the results obtained under the same experimental conditions with some known antihypertensive drugs, and the approximate oral LD50 in mice are stated.

in vivo = conditions: mouse

`CCCC(C)(C)NC(=NC#N)Nc1cccnc1` [P 1067, N"-cyano-N-(1,1-dimethylbutyl)-N'-3-pyridylcuanidine] showed a BP ([1]; 0.5 mg/kg, 2 hours) of 158 mm Hg, an HR ([1]; 0.5 mg/kg, 2 hours) of 440 beats/minute and a BP ([1]; 0.5 mg/kg, 4 hours) of 168 mm Hg. For the same compound, the HR ([1]; 0.5 mg/kg, 4 hours) was 413 beats/minute, the BP ([1]; 0.5 mg/kg, 24 hours) was 176 mm Hg and the HR ([1]; 0.5 mg/kg, 24 hours) was 408 beats/minute. The LD50 (in vivo; po) was > 1000 mg/kg.

Work on `N=c1nc(N2CCCCC2)cc(N)n1O` [Minoxidil, 6-Amino-1,2-dihydro-1-hydroxy-2-imino-4-piperid-1-ylpyrimidine, reference compound] yielded a BP ([1]; 0.5 mg/kg, 2 hours) of 161 mm Hg, an HR ([1]; 0.5 mg/kg, 2 hours) of 409 beats/minute and a BP ([1]; 0.5 mg/kg, 4 hours) of 153 mm Hg. The HR ([1]; 0.5 mg/kg, 4 hours) was 411 beats/minute, the BP ([1]; 0.5 mg/kg, 24 hours) was 167 mm Hg and the HR ([1]; 0.5 mg/kg, 24 hours) was 400 beats/minute. For the same compound, the BP ([1]; 1.0 mg/kg, 2 hours) was 158 mm Hg, the HR ([1]; 1.0 mg/kg, 2 hours) was 431 beats/minute and the BP ([1]; 1.0 mg/kg, 4 hours) was 146 mm Hg. It also gave an HR ([1]; 1.0 mg/kg, 4 hours) of 424 beats/minute, a BP ([1]; 1.0 mg/kg, 24 hours) of 169 mm Hg and an HR ([1]; 1.0 mg/kg, 24 hours) of 407 beats/minute.

Work on `CCC(CC)(CC)NC(=NC#N)Nc1cccnc1` [P 1068, N"-cyano-N-(1,1-diethylpropyl)-N'-3-pyridylguanidine] yielded a BP ([1]; 0.5 mg/kg, 2 hours) of 131 mm Hg, an HR ([1]; 0.5 mg/kg, 2 hours) of 473 beats/minute and a BP ([1]; 0.5 mg/kg, 4 hours) of 146 mm Hg. It also gave an HR ([1]; 0.5 mg/kg, 4 hours) of 437 beats/minute, a BP ([1]; 0.5 mg/kg, 24 hours) of 180 mm Hg and an HR ([1]; 0.5 mg/kg, 24 hours) of 383 beats/minute. For the same compound, the LD50 (in vivo; po, p.o. (mice), approximate) was > 1000 mg/kg.

In the case of `NNc1nncc2ccccc12` [Hydralazine, reference compound], the BP ([1]; 2.0 mg/kg, 2 hours) was 162 mm Hg, the HR ([1]; 2.0 mg/kg, 2 hours) was 425 beats/minute and the BP ([1]; 2.0 mg/kg, 4 hours) was 163 mm Hg. It also gave an HR ([1]; 2.0 mg/kg, 4 hours) of 413 beats/minute, a BP ([1]; 2.0 mg/kg, 24 hours) of 174 mm Hg and an HR ([1]; 2.0 mg/kg, 24 hours) of 379 beats/minute. For the same compound, the BP ([1]; 5.0 mg/kg, 2 hours) was 150 mm Hg, the HR ([1]; 5.0 mg/kg, 2 hours) was 405 beats/minute and the BP ([1]; 5.0 mg/kg, 4 hours) was 152 mm Hg. It also gave an HR ([1]; 5.0 mg/kg, 4 hours) of 410 beats/minute, a BP ([1]; 5.0 mg/kg, 24 hours) of 170 mm Hg and an HR ([1]; 5.0 mg/kg, 24 hours) of 380 beats/minute. For the same compound, the LD50 (in vivo; mice, oral, printed with (114-130)) was 122 mg/kg.

Work on `CCC(C)(CC)NC(=NC#N)Nc1cccnc1` [P 1066, N"-cyano-N-(1-ethyl-1-methylpropyl)-N'-3-pyridylguanidine] yielded a BP ([1]; 0.05 mg/kg, 2 hours) of 155 mm Hg, an HR ([1]; 0.05 mg/kg, 2 hours) of 462 beats/minute and a BP ([1]; 0.05 mg/kg, 4 hours) of 170 mm Hg. The HR ([1]; 0.05 mg/kg, 4 hours) was 417 beats/minute, the BP ([1]; 0.05 mg/kg, 24 hours) was 178 mm Hg and the HR ([1]; 0.05 mg/kg, 24 hours) was 413 beats/minute. The BP ([1]; 0.5 mg/kg, 2 hours) was 146 mm Hg, the HR ([1]; 0.5 mg/kg, 2 hours) was 437 beats/minute and the BP ([1]; 0.5 mg/kg, 4 hours) was 143 mm Hg. For the same compound, the HR ([1]; 0.5 mg/kg, 4 hours) was 413 beats/minute, the BP ([1]; 0.5 mg/kg, 24 hours) was 181 mm Hg and the HR ([1]; 0.5 mg/kg, 24 hours) was 413 beats/minute. It also gave a BP ([1]; 2.5 mg/kg, 2 hours) of 113 mm Hg, an HR ([1]; 2.5 mg/kg, 2 hours) of 386 beats/minute and a BP ([1]; 2.5 mg/kg, 4 hours) of 100 mm Hg. It also gave a BP ([1]; 2.5 mg/kg, 6 hours) of 114 mm Hg, an HR ([1]; 2.5 mg/kg, 6 hours) of 375 beats/minute and a BP ([1]; 2.5 mg/kg, 24 hours) of 152 mm Hg. For the same compound, the HR ([1]; 2.5 mg/kg, 24 hours) was 335 beats/minute, the BP ([1]; 10.0 mg/kg, 2 hours) was < 100 mm Hg and the BP ([1]; 10.0 mg/kg, 4 hours) was < 100 mm Hg. The BP ([1]; 10.0 mg/kg, 6 hours) was < 100 mm Hg, the BP ([1]; 10.0 mg/kg, 24 hours) was 126 mm Hg and the HR ([1]; 10.0 mg/kg, 24 hours) was 336 beats/minute. For the same compound, the LD50 (in vivo; po, p.o. (mice), approximate) was > 1000 mg/kg.
